# Test results as given in ChEMBL document CHEMBL1667781, “Biological evaluation of KRIBB3 analogs as a microtubule polymerization inhibitor” (Bioorg Med Chem Lett, 2011).
# Assay: Inhibition of tubulin polymerization for 70 mins by microtubule polymerization assay
# Design: concentration or dose not given beside the values
row,SMILES,inhibition
1,CCc1cc(-c2oncc2-c2ccc(O)cc2)c(O)cc1O,134%
2,CCc1cc(-c2oncc2-c2ccc(OC)cc2)c(O)cc1OC,52%
3,CCc1cc(-c2oncc2-c2ccc(O)cc2)c(O)cc1OC,115%
4,COc1ccc(-c2cnoc2-c2ccc(OCc3ccccc3)c(OCc3ccccc3)c2)cc1,80%
5,CCc1cc(-c2oncc2-c2ccc(OC)cc2)c(OCc2ccccc2)cc1OC,79%
6,COc1ccc(-c2cnoc2-c2cc(C)c(OCc3ccccc3)c(C)c2)cc1,126%
7,COc1ccc(-c2cnoc2-c2ccc(O)cc2)cc1,80%

# Other lines, results leading:
row,inhibition,SMILES
1,65%,COc1ccc(-c2cnoc2-c2ccc(O)c(O)c2)cc1
2,128%,COc1ccc(-c2cnoc2-c2ccc(OC)c(OCc3ccccc3)c2)cc1
3,76%,COc1ccc(-c2cnoc2-c2cc(C)c(O)c(C)c2)cc1
4,50%,COc1ccc(-c2cnoc2-c2ccc(OC)c(O)c2)cc1
